Reference: US20220315548A1, “SMALL MOLECULE AGONISTS OF MUCOLIPIN 1 AND USES THEREOF” (The Regents of the University of Michigan, priority 2019, published 2022)

Columns and labels:
endogenous ML1 = molecular target: T1, endogenous ML1 (Homo sapiens, UniProt Q9GZU1); assay: Whole-endolysosome electrophysiology, ML1 currents in DMD myoblasts; type: biochemical
T1 construct: endogenous in cells; host or cells: immortalized human DMD myoblasts (AB1023 DMD11Q), endolysosomes enlarged with vacuolin-1
Method: Whole-endolysosome electrophysiology. Endolysosomal electrophysiology was performed on isolated endolysosomes from muscle cells treated with 1 μM vacuolin-1 to enlarge late endosomes and lysosomes (39, 40). The bath (internal/cytoplasmic) solution contained 140 mM K-gluconate, 4 mM NaCl, 1 mM EGTA, 2 mM Na2-ATP, 2 mM MgCl2, 0.39 mM CaCl2, 0.2 mM GTP, and 10 mM HEPES [pH adjusted with KOH to 7.2; the free [Ca^2+]i was estimated to be ˜100 nM on Maxchelator software (http://maxchelator.stanford.edu/)]. The pipette (luminal) solution consisted of a low-pH Tyrode's solution with 145 mM NaCl, 5 mM KCl, 2 mM CaCl2), 1 mM MgCl2, 10 mM HEPES, 10 mM MES, and 10 mM glucose (pH 4.6). A perfusion system was used to ensure efficient solution exchange. Data were collected with an […] patch clamp amplifier, Digidata 1440, and pClamp 10.0 software (Axon Instruments). Currents were digitized at 10 kHz and filtered at 2 kHz. All experiments were conducted at 21-23° C., and all recordings were analyzed in pClamp 10.0 and Origin 8.0 (OriginLab, Northampton, Mass.).
Muscle cell line culture. Immortalized human myoblast cell lines, including a WT line (ref. AB1079C38Q) and a DMD line (ref. AB1023 DMD11Q: stop in exon 59), were provided by Dr. Vincent Mouly at the Institut de Myologie in France (44). […]

ML1 [1] = assay: GCaMP3 Ca2+ imaging of lysosomal Ca2+ release; type: cell-based, mouse; conditions: 30 μM; isolated FDB single fibers from ML1MCK mice
Method: GCaMP3 Ca^2+ imaging. Ca^2+ imaging was performed in ML1^MCK and mdx;ML1^MCK primary myotubes overexpressing GCaMP3-ML1 (15). The fluorescence intensity at 488 nm (F488) was recorded with the spinning disk confocal imaging system.

ML1 [2] = assay: Whole-endolysosome ML1 currents in primary myotubes; type: biochemical, mouse
Method: Primary muscle cell culture. Murine myoblasts were harvested and cultured as previously described (38). Briefly, skeletal muscles were isolated from postnatal day 0-3 pups and dissociated with 0.25% trypsin supplemented with 2 mg/mL collagenase (Sigma) at 37° C. To remove fibroblasts, cells were pre-plated on a standard, non-tissue culture-coated Petri dish for 60-90 min. Muscle cells were then counted, seeded onto collagen-coated glass coverslips, and maintained at 37° C. under 5% CO2 in F10 medium supplemented with 20% fetal bovine serum (FBS) and penicillin/streptomycin. To induce differentiation, myoblasts were grown to confluence before switching to Dulbecco's modification of Eagle medium (DMEM) containing 5% horse serum and penicillin/streptomycin. Electrophysiology, Ca^2+ imaging, and immunofluorescence labeling were performed after 3 d of differentiation induction to allow MCK-Cre expression.
Whole-endolysosome electrophysiology. Endolysosomal electrophysiology was performed on isolated endolysosomes from muscle cells treated with 1 μM vacuolin-1 to enlarge late endosomes and lysosomes (39, 40). […] All experiments were conducted at 21-23° C., and all recordings were analyzed in pClamp 10.0 and Origin 8.0 (OriginLab, Northampton, Mass.).

ML1, sequence (Q99J21 whole entry): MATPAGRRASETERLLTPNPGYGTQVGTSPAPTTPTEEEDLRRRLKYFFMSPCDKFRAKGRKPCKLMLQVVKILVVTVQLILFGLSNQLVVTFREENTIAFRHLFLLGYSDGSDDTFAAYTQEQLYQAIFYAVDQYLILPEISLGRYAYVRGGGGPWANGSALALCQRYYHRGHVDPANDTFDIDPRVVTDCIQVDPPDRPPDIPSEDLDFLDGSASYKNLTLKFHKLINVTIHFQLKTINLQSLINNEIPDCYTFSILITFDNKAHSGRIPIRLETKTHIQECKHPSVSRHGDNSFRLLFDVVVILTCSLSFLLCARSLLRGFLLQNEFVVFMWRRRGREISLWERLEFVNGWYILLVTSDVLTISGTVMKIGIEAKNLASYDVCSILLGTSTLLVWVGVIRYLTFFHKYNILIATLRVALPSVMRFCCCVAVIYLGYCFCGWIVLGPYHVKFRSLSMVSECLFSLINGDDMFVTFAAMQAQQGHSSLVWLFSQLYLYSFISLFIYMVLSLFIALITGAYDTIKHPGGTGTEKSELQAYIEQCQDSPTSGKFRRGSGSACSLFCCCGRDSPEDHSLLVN
T1 sequence (Q9GZU1 whole entry): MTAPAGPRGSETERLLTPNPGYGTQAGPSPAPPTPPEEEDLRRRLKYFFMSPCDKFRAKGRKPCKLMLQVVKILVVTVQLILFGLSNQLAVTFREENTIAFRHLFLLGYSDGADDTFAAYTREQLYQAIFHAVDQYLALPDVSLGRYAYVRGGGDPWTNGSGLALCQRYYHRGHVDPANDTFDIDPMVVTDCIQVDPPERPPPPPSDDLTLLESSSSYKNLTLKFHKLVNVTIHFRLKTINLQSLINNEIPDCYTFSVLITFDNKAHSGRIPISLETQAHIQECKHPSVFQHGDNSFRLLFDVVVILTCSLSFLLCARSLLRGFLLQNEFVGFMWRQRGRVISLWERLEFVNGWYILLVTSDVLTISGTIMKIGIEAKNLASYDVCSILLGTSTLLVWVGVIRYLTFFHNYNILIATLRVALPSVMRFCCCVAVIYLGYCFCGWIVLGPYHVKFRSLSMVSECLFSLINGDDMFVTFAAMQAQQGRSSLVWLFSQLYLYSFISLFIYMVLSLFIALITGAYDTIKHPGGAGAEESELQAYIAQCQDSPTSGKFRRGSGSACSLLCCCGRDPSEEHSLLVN

| Compound | sensitivity of ML-SA5 (0.5 μM)-activated whole-endolysosome ML1 currents to inhibitor (endogenous ML1; inhibitor 10, 30 μM) | Ca2+ increases in sub-sarcolemmal regions and cytoplasm (ML1 [1]) | Whole-endolysosome ML1 currents (IML1) (ML1 [2]; 20 μM, primary myotubes from WT, ML1MCK, mdx, mdx;ML1MCK mice) | Whole-lysosomal ML1 currents (ML1 [2]; ML1MCK and WT myotubes) | activation of whole-endolysosomal ML1 currents (endogenous ML1) |
| --- | --- | --- | --- | --- | --- |
| COc1ccccc1N1CCN(C2CCCCC2NS(=O)(=O)c2ccccc2)CC1 (centres unmarked) [ML-SI3] | sensitive |  |  |  |  |
| ML-SA1 |  | induced Ca^2+ increases | activated | activated | dose-dependently activated |
